Source: the supplement of paper PMC10307832

Assays:
Test in all cases: relative viability (nuclei count vs DMSO), 5 days (fraction); higher = more cells survive
[1] = system: NCI-H1993
Procedure, shortened: (§1)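 Lung cancer cell lines, seeded in 1536-well plates, were treated the following day by pin tool with a single drug or with five library-drug doses (not always all listed) in √10 steps on top of a fixed anchor-drug dose. Cells were fixed and nuclei stained in one step after 5 days, and nuclei were counted. Relative viability is the nuclei count for treated wells divided by that for vehicle wells, reported as medians of duplicate plates.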

[2] = system: NCI-H596
Procedure, shortened: as §1

[3] = system: CAL-12T
Procedure, shortened: as §1

[4] = system: NCI-H2085
Procedure, shortened: as §1

[5] = system: HCC-366
Procedure, shortened: as §1

[6] = system: NCI-H1648
Procedure, shortened: as §1

[7] = system: NCI-H2405
Procedure, shortened: as §1

[8] = system: NCI-H1734
Procedure, shortened: as §1

[9] = system: NCI-H1623
Procedure, shortened: as §1

Structure (SMILES): COCC1(CO)C(=O)C2CCN1CC2 (centres undefined) [PRIMA-1MET] + COc1cccc2cc(-c3nc([C@H]4CC[C@H](C(=O)O)CC4)n4ncnc(N)c34)[nH]c12 [OSI-027] (partner 0.5 µM)
- relative viability ([1]; first compound 0.2 µM): 0.569
- relative viability ([1]; first compound 0.6325 µM): 0.561
- relative viability ([1]; first compound 2 µM): 0.518
- relative viability ([1]; first compound 6.325 µM): 0.532
- relative viability ([1]; first compound 20 µM): 0.49
- relative viability ([2]; first compound 0.2 µM): 0.747
- relative viability ([2]; first compound 0.6325 µM): 0.635
- relative viability ([2]; first compound 2 µM): 0.457
- relative viability ([2]; first compound 6.325 µM): 0.893
- relative viability ([2]; first compound 20 µM): 0.645
- relative viability ([3]; first compound 0.2 µM): 0.7
- relative viability ([3]; first compound 0.6325 µM): 0.608
- relative viability ([3]; first compound 2 µM): 0.807
- relative viability ([3]; first compound 6.325 µM): 0.798
- relative viability ([3]; first compound 20 µM): 0.106
- relative viability ([4]; first compound 0.2 µM): 0.707
- relative viability ([4]; first compound 0.6325 µM): 0.665
- relative viability ([4]; first compound 2 µM): 0.315
- relative viability ([4]; first compound 6.325 µM): 0.548
- relative viability ([4]; first compound 20 µM): 0.194
- relative viability ([5]; first compound 0.2 µM): 0.389
- relative viability ([5]; first compound 0.6325 µM): 0.725
- relative viability ([5]; first compound 2 µM): 0.303
- relative viability ([5]; first compound 6.325 µM): 1.01
- relative viability ([5]; first compound 20 µM): 0.927
- relative viability ([6]; first compound 0.2 µM): 0.24
- relative viability ([6]; first compound 0.6325 µM): 0.252
- relative viability ([6]; first compound 2 µM): 0.283
- relative viability ([6]; first compound 6.325 µM): 0.256
- relative viability ([6]; first compound 20 µM): 0.249
- relative viability ([7]; first compound 0.2 µM): 0.501
- relative viability ([7]; first compound 0.6325 µM): 0.653
- relative viability ([7]; first compound 6.325 µM): 0.591
- relative viability ([7]; first compound 20 µM): 0.499
- relative viability ([8]; first compound 0.2 µM): 0.709
- relative viability ([8]; first compound 0.6325 µM): 0.508
- relative viability ([8]; first compound 2 µM): 0.413
- relative viability ([8]; first compound 6.325 µM): 0.532
- relative viability ([8]; first compound 20 µM): 0.0554
- relative viability ([9]; first compound 0.2 µM): 0.374
- relative viability ([9]; first compound 0.6325 µM): 0.405
- relative viability ([9]; first compound 2 µM): 0.445
- relative viability ([9]; first compound 6.325 µM): 0.42
- relative viability ([9]; first compound 20 µM): 0.303
